Test results reported in patent US20040006236A1, “Diaminopropionic acid derivatives” (priority 1999, published 2004).

What was measured:
[1] = system: Mac-1 and LFA-1-mediated neutrophil binding to immobilized ICAM-1; assay: Neutrophil (Mac-1 and LFA-1)/ICAM-1 cell-based screening assay; conditions: human neutrophils
Procedure: Both Mac-1 and LFA-1 are expressed on the cell surface of neutrophils. The ability of antagonists to inhibit Mac-1 and LFA-1-mediated neutrophil binding to immobilized ICAM-1 was quantitated by a cell based assay. Typically, fusion protein consisting of the entire extracellular domain of human ICAM-1 and the Fc domain of human IgG (5dICAM-Ig) was coated onto 96 well microtiter plates (1 μg in 100 μL TBS) overnight at 4° C. The plates were then blocked with 150 μL of 10% PVP in TBS for 1 h at 37° C. Plates were washed 3 times (150 μL each) with TBS. Human neutrophils were purified from whole blood from healthy volunteers using LSM (ICN). Cells (8×10^6/mL) were fluorescently labeled with 6-carboxyfluorescein (100 μg/mL) for 40 min in IMDM/1 mM MgCl2/1.2 mM CaCl2 as described in Example 287. Cells (8×10^6/mL) were stimulated with f-Met-Leu-Phe (10 μM) for 5 min at room temperature just prior to being used in the assay, and diluted to 2×10^6 cells/mL with RPMI/0.05% BSA/0.2 mM MnCl2. Stock solutions (10 mM) of test compounds were diluted to 2.5 mM with DMSO. A series of 1:4 dilutions in DMSO were performed to achieve a concentration range of 38.2 nM-2.5 mM. Each sample was further diluted 50-fold with RPMI/0.05% BSA/0.2 mM MnCl2. Equal volumes of labeled cells were then added to assay tubes containing diluted compound. Final concentrations of compound tested in the assay ranged from 0.38 nM-25 μM with a cell concentration of 1×10^6 per mL. Cells were incubated for 10 min at 37° C. with gentle shaking, then dispensed (100 μL per well) onto ICAM-1 coated plates and incubated for 30 min at 37° C./5% CO2. Unbound cells were washed and plates were read on a Cytofluor™ 2300 (Millipore) as described in Example 384.

[2] = target: T1, LFA-1 binding to immobilized ICAM-1 (Homo sapiens, UniProt P05107+P20701); assay: LFA-1/ICAM-1 protein-protein assay (solid-phase ELISA); conditions: read-out: LFA-1/ICAM-1 Protein-Protein Assay IC50
T1 construct: made in house; host or cells: transfected 293 cells (LFA-1)
T1 sequence (P20701 26-1170): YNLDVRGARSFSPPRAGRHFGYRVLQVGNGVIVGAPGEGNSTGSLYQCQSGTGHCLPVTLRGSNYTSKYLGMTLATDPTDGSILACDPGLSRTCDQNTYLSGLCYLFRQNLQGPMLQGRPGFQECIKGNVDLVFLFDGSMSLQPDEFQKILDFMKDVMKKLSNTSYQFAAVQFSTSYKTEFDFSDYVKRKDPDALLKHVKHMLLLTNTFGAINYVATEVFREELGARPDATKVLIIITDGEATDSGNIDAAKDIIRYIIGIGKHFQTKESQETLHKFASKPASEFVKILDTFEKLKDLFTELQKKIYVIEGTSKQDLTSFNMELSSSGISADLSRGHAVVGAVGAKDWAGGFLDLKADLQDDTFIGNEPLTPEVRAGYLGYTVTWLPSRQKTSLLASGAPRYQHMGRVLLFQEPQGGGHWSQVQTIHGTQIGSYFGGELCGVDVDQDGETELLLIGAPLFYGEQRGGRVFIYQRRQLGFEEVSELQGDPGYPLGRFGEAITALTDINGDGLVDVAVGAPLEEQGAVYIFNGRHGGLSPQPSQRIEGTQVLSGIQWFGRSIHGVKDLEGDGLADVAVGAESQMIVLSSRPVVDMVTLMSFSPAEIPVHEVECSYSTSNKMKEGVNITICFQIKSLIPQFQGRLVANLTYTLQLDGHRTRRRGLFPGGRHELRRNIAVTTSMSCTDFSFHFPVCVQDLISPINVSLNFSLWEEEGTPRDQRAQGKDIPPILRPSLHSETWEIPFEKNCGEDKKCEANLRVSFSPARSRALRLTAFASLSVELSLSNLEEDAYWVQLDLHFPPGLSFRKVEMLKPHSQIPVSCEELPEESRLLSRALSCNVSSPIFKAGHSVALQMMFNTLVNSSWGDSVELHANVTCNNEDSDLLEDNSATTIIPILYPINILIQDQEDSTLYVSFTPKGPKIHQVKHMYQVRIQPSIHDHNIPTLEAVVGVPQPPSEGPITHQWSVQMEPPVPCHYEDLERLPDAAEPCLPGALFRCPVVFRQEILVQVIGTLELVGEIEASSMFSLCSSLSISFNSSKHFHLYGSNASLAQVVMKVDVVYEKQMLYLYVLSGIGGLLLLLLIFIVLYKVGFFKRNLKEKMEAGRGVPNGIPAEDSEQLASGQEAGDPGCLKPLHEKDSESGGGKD
T1 sequence (P05107 23-769): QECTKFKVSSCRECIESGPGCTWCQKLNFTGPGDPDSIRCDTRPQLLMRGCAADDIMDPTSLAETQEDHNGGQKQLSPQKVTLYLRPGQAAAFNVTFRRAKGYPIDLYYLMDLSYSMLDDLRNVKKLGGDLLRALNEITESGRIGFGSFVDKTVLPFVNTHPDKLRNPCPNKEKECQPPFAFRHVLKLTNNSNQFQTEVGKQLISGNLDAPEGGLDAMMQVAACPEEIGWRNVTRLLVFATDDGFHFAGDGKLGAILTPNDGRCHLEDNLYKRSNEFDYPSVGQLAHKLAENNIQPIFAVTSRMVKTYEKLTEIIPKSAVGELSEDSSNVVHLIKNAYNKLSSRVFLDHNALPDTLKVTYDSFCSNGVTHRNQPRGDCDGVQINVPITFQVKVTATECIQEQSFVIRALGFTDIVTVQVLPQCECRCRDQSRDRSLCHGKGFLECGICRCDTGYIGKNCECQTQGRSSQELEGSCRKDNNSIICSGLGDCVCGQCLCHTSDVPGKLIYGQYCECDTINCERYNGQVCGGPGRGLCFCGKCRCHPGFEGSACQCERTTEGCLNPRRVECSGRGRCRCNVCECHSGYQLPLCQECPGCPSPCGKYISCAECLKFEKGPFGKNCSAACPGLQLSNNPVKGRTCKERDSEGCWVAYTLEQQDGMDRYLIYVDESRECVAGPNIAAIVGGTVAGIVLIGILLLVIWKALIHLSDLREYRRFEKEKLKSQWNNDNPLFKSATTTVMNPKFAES
Outline: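 Human 5dICAM-Ig (ICAM-1 extracellular domain–IgG Fc) coated on plates; membrane-bound LFA-1 from transfected 293 cells (280 ng/mL) added with compound in Mn2+-containing HEPES buffer pH 7.2, 2 h at 37° C. Bound LFA-1 detected via anti-β2 antibody and HRP/TMB at 450 nm; IC50s determined.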

[3] = system: T lymphocyte proliferation (C57BI/6 spleen cells with irradiated BALB/c spleen cells); assay: Mixed lymphocyte reaction (MLR), one-way; assay type: cell-based, mice; conditions: Mus musculus, T-lymphocyte; read-out: MLR IC50
From the text: Admixture of murine spleen cells from two different inbred strains of mice induces proliferation of T lymphocytes. The magnitude of T cell proliferation depends on the extent of disparity in the major histocompatibility antigens between the two strains. Splenic T lymphocytes from both strains proliferate due to alloantigen recognition, a process for which the interaction of ICAM-1 on antigen-presenting cells with LFA-1 on lymphocytes is necessary. The ability of antagonists to inhibit T lymphocyte proliferation following recognition of alloantigens was assessed in a one-way MLR, where cells from one strain were irradiated to permit measurement of the proliferative response of cells from the other strain. Spleen cells were washed three times in tissue culture medium (TCM; see below). […] One hundred microliters of serial dilutions of antagonists or TCM were added to the spleen cell mixture. The total volume in each well was 200 μL. TCM was RPMI1640 containing 10% heat-inactivated fetal bovine serum, […] L-glutamine, 100 Units/ml each of penicillin and streptomycin and 5×10^−5 M 2-mercaptoethanol. Dilutions of antagonists were prepared in TCM. Plates were incubated in 5% CO2 for 3 days. On the third day, 0.5 μCi of tritiated thymidine (10 μCi/mL) was added to all the wells. Cells were harvested 6 h later on a 96-well plate harvester and the amount of tritiated thymidine incorporated was assessed in a liquid scintillation counter.

IC50 [1]: 0.3 nM
IC50 [2]: 0.3 nM
SMILES: Cc1cc(C(=O)NCc2cccc(O)c2)cc(Cl)c1C(=O)N[C@@H](CNC(=O)c1cc(O)cc(O)c1)C(=O)O [Example 341, N-[2-chloro-4-[[[(3-hydroxyphenyl)methyl]amino]carbonyl]-6-methylbenzoyl]-3-(3,5-dihydroxybenzoylamino)-L-alanine]
IC50 [3]: 3 nM
